Here are results for 23 compounds from patent US20230339915A1 (Vertex Pharmaceuticals Incorporated, priority 2020, published 2023).

Test [1] concerns the target NL20 human bronchial epithelial cells expressing human Z-AAT (Homo sapiens (Human), UniProt P01009, E366K). Put plainly: AAT Function Assay (MSD Assay NL20-SI Cell Line). The settings on record: functionally active AAT (AAT-hNE complex, MSD) in supernatant of NL20 cells expressing human Z-AAT; read-out: NL20 Functional EC50. It is filed as cell-based. As to the method:
A. AAT Function Assay (MSD Assay NL20-SI Cell Line)
Alpha-1 antitrypsin (AAT) is a SERpIN (serine protease inhibitor) that inactivates enzymes by binding to them covalently. This assay measured the amount of functionally active AAT in a sample in the presence of the disclosed Compounds 1-227 by determining the ability of AAT to form an irreversible complex with human neutrophil Elastase (hNE). In practice, the sample (cell supernatant, blood sample, or other) was incubated with excess hNE to allow AAT-Elastase complex to be formed with all functional AAT in the sample. This complex was then captured to a microplate coated with an anti-AAT antibody. The complex captured to the plate was detected with a labeled anti-Elastase antibody and quantitated using a set of AAT standards spanning the concentration range present in the sample. Meso Scale Discovery (MSD) plate reader, Sulfo-tag labeling, and microplates were used to provide high sensitivity and wide dynamic range.
Instrument(S): • Meso Sector S600 • Bravo • Washer dispenser • Multidrop Combi
Day 1 Cell Culture • 1. Harvest NL20 human bronchial epithelial cells expressing human Z-AAT in OptiMEM™ containing Pen/Strep (P/S) • 2. Seed at 16,000 cells/well in 30 μL (384 well plate) • 3. Centrifuge plates briefly up to speed (1200 rpm) and place into 37° C. incubator overnight
Day 2: Compound Addition and Coating Plates with Capture Antibody
Compound Addition: • 1. Dispense 40 μL of OptiMEM™ (P/S) with doxycycline (1:1000 stock=0.1 μM final) to each well of the compound plate using a multidrop Combi in hood • 2. Remove cell plate from incubator, flip/blot and take immediately to Bravo to transfer compounds • 3. Return plates to incubator overnight
Coat MSD Plates • 1. Dilute capture antibody (Polyclonal Goat anti-AAT) to 5 μg/mL (1:200) in PBS (no BSA). • 2. Dispense 25 μL of diluted capture antibody into all wells of MSD 384-well High Bind plate using the Multidrop equipped with a standard cassette. • 3. Incubate overnight at 4° C.
Prepare Blocker A (BSA) Solutions • 1. Prepare solution of 5% MSD Blocker A (BSA) following the manufacturer's instructions. • 2. Further dilute the 5% MSD Blocker A in PBS to 1% (Blocker A) as needed.
Block Plates • 1. Wash plate 1× with 50 μL Wash buffer (PBS+0.5% Tween 20), and adds 35 μL 5% Block A buffer to block non-specific binding on washer dispenser • 2. Rotate plates on shaker for 1 hour at 600 rpm
Prepare M-AA T Standards • 1. Dilute M-AAT stock to 1.6 μg/mL in 1% BSA Blocker A (Stock in −70° C.); then prepare 12×1:2 serial dilutions in 1% Blocker A • 2. The top starting final concentration on MSD plate is 320 ng/mL. These dilutions correspond to a final concentration of 320, 160, 80, 40, 20, 10, 5, 2.5, 1.25, 0.625, 0.312, 0.156 ng/mL.
Dilution Plate • 1. Add 80 μL of 1% Assay buffer to all wells except columns 1/24 (standards) with Multidrop Combi • 2. Add diluted standards to columns 1 and 24 • 3. Centrifuge dilution plates 1200 rpm briefly
Cell Plate • 1. Aspirate columns which will have the standards from the cell plates in the hood using 16-pin aspirator
Prepare Human Neutrophil Elastase (hNE) • 1. Prepare 1 μg/mL Human Neutrophil Elastase by diluting in 1% Blocker A. • a. Small 100 μg vial—add 1 mL PBS (100 μg/mL) • i. This can then be diluted 1:100 in 1% Assay Buffer for a final 1 μg/mL concentration
MSD—add hNE (20 μL/well) • 1. After the MSD plate has blocked for at least 1 hour, wash plate 1× with 50 μL Wash buffer (PBS+0.5% Tween 20) and then add 20 μL hNE to each well
Bravo—Cell Plate—Dilution Plate—MSD Plate
Using the Bravo aspirate 10 μL from the cell plate, transfer to the dilution plate (9-fold dilution) • 1. Mix 25 μL 3×, then aspirate 5 μL, transfer to MSD plate (5-fold dilution) • 2. Mix 10 μL 3×. Total dilution is 45 fold. • 3. Shake plates at 600 rpm for 1.5 hours
Add Functional Detection hNE Antibody • 1. Wash plate 1× with wash buffer • 2. […]

Test [2] concerns the target purified Z-AAT protein from human plasma (Homo sapiens (Human), UniProt P01009, E366K). Nature of the test: Biochemical Assay (Z-AAT Elastase Activity Assay). The following applies: purified Z-AAT pre-incubated with compound 1 hour, then human neutrophil elastase and fluorescent substrate. The source says:
B. Biochemical Assay (Z-AAT Elastase Activity Assay)
This assay measured the modulation of Compounds 1-227 on Z-AAT SERpIN activity using purified Z-AAT protein and purified human neutrophil elastase (hNE). Normally, when active monomeric Z-AAT encounters a protease such as trypsin or elastase, it forms a 1:1 covalent “suicide” complex in which both the AAT and protease are irreversibly inactivated. However, compounds binding to Z-AAT can lead to a decrease in SERpIN activity. In such cases, when a protease encounters compound-bound Z-AAT, the protease cleaves and inactivates Z-AAT without itself being inactivated.
Reagents • PBS buffer (media prep)+0.01% BRIJ35 detergent (Calbiochem catalog #203728) Opti-MEM media (Fisher 11058-021) • Human neutrophil elastase (hNE, Athens Research #16-14-051200) • 3.4 μM stock (0.1 mg/mL) prepared in 50 mM Na Acetate, pH 5.5, 150 mM NaCl, stored at −80° C. • Elastase substrate V (ES V, fluorescent peptide substrate MeOSuc-Ala-Ala-Pro-Val-AMC, Calbiochem catalog #324740) • 20 mM stock in DMSO, stored at −20° C. • Purified Z-AAT protein from human plasma; • 12.9 μM (0.67 mg/mL) Z-AAT Vertex Cambridge Sample 4942, from patient • #061-SSN, stored at −80 C
Plates • Corning 4511 (384 well black low volume)
Instruments • PerkinElmer® EnVision™
Pre-Incubation of Z-AAT with Compounds • 1. 7.5 μL of Z-AAT (20 nM) was incubated with compounds 1-227 in a GCA plate for 1 hour at room temperature
Addition of hNE • 1. 7.5 ul of HNE solution (3 nM in PBS+0.01% BRIJ35) added into GCA plate • 2. Incubate plate for 30 minutes to allow Z-AAT/HNE suicide complex formation.
Addition of Substrate and Read Plate on PE Envision • 1. 7.5 μL of substrate (300 μM solution of elastase substrate (ES V) in PBS+0.01% BRIJ35) dispensed per well into GCA plate • 2. Immediately read on Envision.

By EC50 is commonly meant the midpoint of the concentration-response curve. As a reminder, the IC50 is the point on the concentration scale where inhibition reaches its midpoint.

Sequence of NL20 human bronchial epithelial cells expressing human Z-AAT (P01009 25-418 E366K limits assumed): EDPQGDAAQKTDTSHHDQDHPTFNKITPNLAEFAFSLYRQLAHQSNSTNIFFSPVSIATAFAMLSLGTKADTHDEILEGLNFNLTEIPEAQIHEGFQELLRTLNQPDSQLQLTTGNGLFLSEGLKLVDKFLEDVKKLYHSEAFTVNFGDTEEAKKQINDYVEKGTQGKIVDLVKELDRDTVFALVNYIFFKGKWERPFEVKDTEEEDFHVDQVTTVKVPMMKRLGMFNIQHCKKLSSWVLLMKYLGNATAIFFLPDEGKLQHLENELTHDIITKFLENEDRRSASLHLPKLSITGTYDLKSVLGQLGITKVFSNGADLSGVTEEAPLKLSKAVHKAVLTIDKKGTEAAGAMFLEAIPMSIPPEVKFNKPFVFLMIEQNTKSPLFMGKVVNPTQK
Sequence of purified Z-AAT protein from human plasma (P01009 25-418 E366K limits assumed): as above

Turning to `Cc1cc(-n2c(C(C)C)c([C@@H]3COCC3C(=O)O)c3cc(O)ccc32)ccc1F` (mixture of isomers) [Compound 82], the EC50 in test [1] is more than 2000 nM. Moreover, the IC50 in test [2] is more than 30000 nM. For the compound `Cc1cc(-n2c(C(C)C)c([C@H]3CC[C@@H](C(=O)O)C3)c3cc(O)ccc32)ccc1F` (racemic) [Compound 74], the EC50 in test [1] was more than 2000 nM. The half-maximal inhibitory concentration (IC50) in test [2] was more than 30000 nM. As to `Cc1cc(-n2c(C(C)C)c([C@H]3CC[C@H](C(=O)O)C3)c3cc(O)ccc32)ccc1F` (racemic) [Compound 79], the EC50 in test [1] was 500 to 2000 nM. The IC50 in test [2] was more than 5000 nM. On to `Cc1cc(-n2c(C(C)C)c([C@@H]3COC[C@@H]3C(=O)O)c3cc(O)ccc32)ccc1F` (racemic) [Compound 83], for which the EC50 in test [1] was more than 2000 nM. In addition, in test [2], the IC50 is more than 30000 nM.

Consider `Cc1cc(-n2c(C3CCOCC3)c([C@H]3CCC[C@@H](CC(=O)O)C3)c3cc(O)ccc32)ccc1F` (racemic) [Compound 105, cis-2-(3-(1-(4-fluoro-3-methylphenyl)-5-hydroxy-2-(tetrahydro-2H-pyran-4-yl)-1H-indol-3-yl)cyclohexyl)acetic acid], for which, in test [1], the concentration for a half-maximal effect (EC50) fell in the range of 500 to 2000 nM. Further, in test [2], the IC50 was more than 30000 nM. Taken in the same sequence, the figures for `CCC(O)c1c(C#N)c2cc(O)ccc2n1-c1ccc(F)cc1` (racemic) [Compound 189, 1-(4-fluorophenyl)-5-hydroxy-2-(1-hydroxypropyl)indole-3-carbonitrile] were more than 2000 nM and more than 30000 nM. Taken in the same sequence, the figures for `CCC(OC)c1c(C#N)c2cc(O)ccc2n1-c1ccc(F)cc1` (racemic) [Compound 190, 1-(4-fluorophenyl)-5-hydroxy-2-(1-methoxypropyl)indole-3-carbonitrile] were 500 to 2000 nM and more than 5000 nM. Consider `Cc1cc(-n2c(C3CCOCC3)c([C@H]3C[C@@H]3C(=O)O)c3cc(O)ccc32)ccc1F` (relative stereo) [Compound 124, trans-2-[1-(4-fluoro-3-methyl-phenyl)-5-hydroxy-2-tetrahydropyran-4-yl-indol-3-yl]cyclopropanecarboxylic acid], for which the EC50 in test [1] was more than 2000 nM. In test [2], the IC50 is more than 30000 nM. As for `O=C(O)[C@H]1CCC[C@@H](c2c(C3CCOCC3)n(-c3ccc(F)c(F)c3)c3ccc(O)cc23)C1` (relative stereo) [Compound 136, cis-3-(1-(3,4-difluorophenyl)-5-hydroxy-2-(tetrahydro-2H-pyran-4-yl)-1H-indol-3-yl)cyclohexane-1-carboxylic acid], the EC50 in test [1] was in the range of 500 to 2000 nM. Besides, the concentration for half-maximal inhibition (IC50) in test [2] is more than 30000 nM. As for `Cc1cc(-n2c(C(C)C)c(CC(C)C(=O)O)c3cc(O)ccc32)ccc1F` (single isomer, unassigned) [Compound 101], the EC50 in test [1] was more than 2000 nM. The half-maximal inhibitory concentration (IC50) in test [2] was more than 30000 nM. As for `Cc1cc(-n2c(C(C)C)c(CC(C)C(=O)O)c3cc(O)ccc32)ccc1F` (single isomer, unassigned) [Compound 102], the EC50 in test [1] is more than 2000 nM. In test [2], the IC50 was more than 30000 nM. Take `Cc1cc(-n2c(C(C)C)c(C3CC(F)(C(=O)O)C3)c3cc(O)ccc32)ccc1F` (single isomer, unassigned) [Compound 150]: the EC50 in test [1] is 500 to 2000 nM. Also, the IC50 in test [2] is more than 5000 nM. Take `Cc1cc(-n2c(C3CCOCC3)c([C@H]3CC[C@H](C(=O)O)CC3)c3cc(O)ccc32)ccc1F` [Compound 1, trans-4-(1-(4-fluoro-3-methylphenyl)-5-hydroxy-2-(tetrahydro-2H-pyran-4-yl)-1H-indol-3-yl)cyclohexane-1-carboxylic acid]: in test [2], the IC50 is more than 30000 nM. Consider `Cc1cc(-n2c(C3CCOCC3)c(C3CCCC(C(=O)O)C3)c3cc(O)ccc32)ccc1F` (stereo not shown) [Compound 3], for which the EC50 in test [1] was in the range of 500 to 2000 nM. The IC50 in test [2] was more than 30000 nM.

`Cc1cc(-n2c(C3CCOCC3)c(CC34CC(C(=O)O)(C3)C4)c3cc(O)ccc32)ccc1F` [Compound 4]: the EC50 in test [1] is more than 2000 nM. Also, the IC50 in test [2] is more than 30000 nM. As for `Cc1cc(-n2c(C(C)C)c([C@H]3C[C@@H]3C(=O)O)c3cc(O)c(F)cc32)ccc1F` [Compound 129], the EC50 in test [1] is 500 to 2000 nM. Turning to `Cc1cc(-n2c(C(C)C)c(C3CC3(C)C(=O)O)c3cc(O)ccc32)ccc1F` (stereo not shown) [Compound 130], the half-maximal effective concentration (EC50) in test [1] is 500 to 2000 nM. In the case of `Cc1cc(-n2c(C(C)C)c(-c3ccc(C(=O)O)cc3)c3cc(O)ccc32)ccc1F` [Compound 167], the EC50 in test [1] is less than 500 nM. Same read-out and setting: for `Cc1cc(-n2c(C(C)C)c(-c3ccc(C(=O)O)cc3C)c3cc(O)ccc32)ccc1F` [Compound 170] the value was 500 to 2000 nM. Turning to `Cc1c(C#N)c2cc(O)ccc2n1-c1ccc(F)cc1` [Compound 182, 1-(4-fluorophenyl)-5-hydroxy-2-methyl-1H-indole-3-carbonitrile], the EC50 in test [1] is more than 2000 nM.

On to `Cc1c(C(C)C#N)c2cc(O)ccc2n1-c1ccc(F)cc1` (stereo not shown) [Compound 183, 2-(1-(4-fluorophenyl)-5-hydroxy-2-methyl-1H-indol-3-yl)propanenitrile], for which the EC50 in test [1] was more than 2000 nM. Regarding `Cc1cc(-n2c(C(C)C)c([C@H]3C[C@H](c4n[nH]c(=O)o4)C3)c3cc(O)ccc32)ccc1F` [Compound 221, Trans-5-[3-[1-(4-fluoro-3-methyl-phenyl)-5-hydroxy-2-isopropyl-indol-3-yl]cyclobutyl]-3H-1,3,4-oxadiazol-2-one], the EC50 in test [1] is more than 2000 nM.

Consider `Cc1cc(-n2c(C(C)C)c([C@H]3C[C@@H](c4n[nH]c(=O)o4)C3)c3cc(O)ccc32)ccc1F` [Compound 222, cis-5-[3-[1-(4-fluoro-3-methyl-phenyl)-5-hydroxy-2-isopropyl-indol-3-yl]cyclobutyl]-3H-1,3,4-oxadiazol-2-one], for which, in test [1], the EC50 is more than 2000 nM.
